Data: ChEMBL document CHEMBL5104169, “Design and synthesis of mogrol derivatives modified on a ring with anti-inflammatory and anti-proliferative activities” (Bioorg Med Chem Lett, 2022)
Activity calls are given as the source filed them. The rule behind the calls is not given here.

Experiments:
[1] = system: A549; assay: Antiproliferative activity against human A549 cells; format: functional, cell-based
[2] = system: NCI-H460; assay: Antiproliferative activity against human NCI-H460 cells; format: functional, cell-based
[3] = system: NCI-H1975; assay: Antiproliferative activity against human NCI-H1975 cells; format: functional, cell-based
[4] = system: NCI-H1299; assay: Antiproliferative activity against human NCI-H1299 cells; format: functional, cell-based
[5] = system: RAW264.7; assay: Inhibition of LPS-induced NO production in mouse RAW264.7 cells at 10 uM relative to control; format: functional
[6] = system: RAW264.7; assay: Inhibition of LPS-induced NO production in mouse RAW264.7 cells; format: functional, cell-based
[7] = system: RAW264.7; assay: Antiinflammatory activity against LPS-induced mouse RAW264.7 cells assessed as decrease in phosphorylation levels of p65 at 2.5 to 10 uM and measured by Western blot analysis; format: functional, cell-based; details: dose 2.5-10 µM
[8] = system: RAW264.7; assay: Antiinflammatory activity against mouse RAW264.7 cells assessed as decrease in LPS-induced IL-6 level at 10 uM measured by ELISA assay; format: functional, cell-based
[9] = system: RAW264.7; assay: Antiinflammatory activity against mouse RAW264.7 cells assessed as decrease in LPS-induced TNF-alpha level at 10 uM measured by ELISA assay; format: functional, cell-based
[10] = system: RAW264.7; assay: Antiinflammatory activity against LPS-induced mouse RAW264.7 cells assessed as decrease in iNOS expression at 2.5 to 10 uM and measured by Western blot analysis; format: functional, cell-based; details: dose 2.5-10 µM
[11] = system: RAW264.7; assay: Antiinflammatory activity against LPS-induced mouse RAW264.7 cells assessed as decrease in phosphorylation levels of IkBalpha at 2.5 to 10 uM and measured by Western blot analysis; format: functional, cell-based; details: dose 2.5-10 µM
[12] = system: RAW264.7; assay: Cytotoxicity against mouse RAW264.7 cells at 10 uM measured after 24 hrs by CCK-8 assay relative to control; format: toxicity, cell-based; details: raw264.7, 24 h
[13] = Cytotoxicity against mouse RAW264.7 cells assessed as cell viability at 10 uM measured after 24 hrs by CCK-8 assay relative to control; format: toxicity, cell-based; details: read-out: Activity
[14] = system: RAW264.7; assay: Inhibition of LPS-induced NO production in mouse RAW264.7 cells at 5 uM relative to control; format: functional

Compound | IC50 [1] [µM] | IC50 [2] [µM] | IC50 [3] [µM] | IC50 [4] [µM] | inhibition at 10 µM [5] [%] | IC50 [6] [µM] | Activity [7] | Activity [8] | Activity [9] | Activity [10] | Activity [11] | Activity [12] | viability at 24 h, 10 µM [13] [%] | inhibition at 5 µM [14] [%]
C[C@H](CC[C@@H](O)C(C)(C)O)[C@H]1CC[C@@]2(C)[C@@H]3CC=C4[C@@H](CC[C@H](O)C4(C)C)[C@]3(C)[C@H](O)C[C@]12C [MOGROL] | 28.6 | > 100 | 87.1 | > 100 | 17.4 | – | – | – | – | – | – | – | – | –
COc1ccc2[nH]c3c(c2c1)C[C@@H]1C(=CC[C@@H]2[C@@]1(C)C(=O)C[C@]1(C)[C@@H]([C@H](C)CC[C@@H](O)C(C)(C)O)CC[C@@]21C)C3(C)C | 21.9 | > 30 | 19 | > 30 | 87.6 | 5.05 | Active | Active | Active | Active | Active | – | – | –
CC(C)c1ccc2[nH]c3c(c2c1)C[C@@H]1C(=CC[C@@H]2[C@@]1(C)C(=O)C[C@]1(C)[C@@H]([C@H](C)CC[C@@H](O)C(C)(C)O)CC[C@@]21C)C3(C)C | 22.2 | > 30 | > 30 | > 30 | 57.4 | – | – | – | – | – | – | – | – | –
C[C@H](CC[C@@H](O)C(C)(C)O)[C@H]1CC[C@@]2(C)[C@@H]3CC=C4[C@@H](C/C(=C\c5ccncc5)C(=O)C4(C)C)[C@]3(C)[C@H](O)C[C@]12C | 11.6 | 15 | 12.7 | 13.3 | – | – | – | – | – | – | – | Toxic | – | –
C[C@H](CC[C@@H](O)C(C)(C)O)[C@H]1CC[C@@]2(C)[C@@H]3CC=C4[C@@H](Cc5cc6cc(Br)ccc6nc5C4(C)C)[C@]3(C)[C@H](O)C[C@]12C | 8.99 | > 30 | 25.7 | 27 | – | – | – | – | – | – | – | Toxic | – | –
C[C@H](CC[C@@H](O)C(C)(C)O)[C@H]1CC[C@@]2(C)[C@@H]3CC=C4[C@@H](C/C(=C\c5ccccc5)C(=O)C4(C)C)[C@]3(C)[C@H](O)C[C@]12C | 10.7 | 16 | 13.6 | 12 | – | – | – | – | – | – | – | Toxic | – | –
C[C@H](CC[C@@H](O)C(C)(C)O)[C@H]1CC[C@@]2(C)[C@@H]3CC=C4[C@@H](C/C(=C\c5ccccc5)C(=O)C4(C)C)[C@]3(C)C(=O)C[C@]12C | 16.1 | 32.5 | > 30 | > 30 | – | – | – | – | – | – | – | Toxic | – | –
C[C@H](CC[C@@H](O)C(C)(C)O)[C@H]1CC[C@@]2(C)[C@@H]3CC=C4[C@@H](Cc5c([nH]c6ccccc56)C4(C)C)[C@]3(C)[C@H](O)C[C@]12C | 16.4 | 18.3 | 23.2 | 22.4 | – | – | – | – | – | – | – | – | > 95 | –
Cc1ccc(/C=C2\C[C@@H]3C(=CC[C@@H]4[C@@]3(C)[C@H](O)C[C@]3(C)[C@@H]([C@H](C)CC[C@@H](O)C(C)(C)O)CC[C@@]43C)C(C)(C)C2=O)cc1 | 9.91 | 13.7 | 15.1 | > 30 | – | – | – | – | – | – | – | Toxic | – | –
Cc1ccc2[nH]c3c(c2c1)C[C@@H]1C(=CC[C@@H]2[C@@]1(C)C(=O)C[C@]1(C)[C@@H]([C@H](C)CC[C@@H](O)C(C)(C)O)CC[C@@]21C)C3(C)C | 16.5 | > 30 | > 30 | 18.7 | 56.6 | – | – | – | – | – | – | – | – | –
C[C@H](CC[C@@H](O)C(C)(C)O)[C@H]1CC[C@@]2(C)[C@@H]3CC=C4[C@@H](Cc5cc6ccccc6nc5C4(C)C)[C@]3(C)[C@H](O)C[C@]12C | 17.2 | 18.9 | 18.7 | 20 | – | – | – | – | – | – | – | Toxic | – | –
C[C@H](CC[C@@H](O)C(C)(C)O)[C@H]1CC[C@@]2(C)[C@@H]3CC=C4[C@@H](C/C(=C\c5cccnc5)C(=O)C4(C)C)[C@]3(C)C(=O)C[C@]12C | 12.6 | 16.5 | 12.7 | 16.4 | – | – | – | – | – | – | – | Toxic | – | –
CC(C)c1ccc2[nH]c3c(c2c1)C[C@@H]1C(=CC[C@@H]2[C@@]1(C)[C@H](O)C[C@]1(C)[C@@H]([C@H](C)CC[C@@H](O)C(C)(C)O)CC[C@@]21C)C3(C)C | 25.4 | 25 | > 30 | > 30 | – | – | – | – | – | – | – | – | > 95 | –
C[C@H](CC[C@@H](O)C(C)(C)O)[C@H]1CC[C@@]2(C)[C@@H]3CC=C4[C@@H](C/C(=C\c5cccnc5)C(=O)C4(C)C)[C@]3(C)[C@H](O)C[C@]12C | 11.1 | 11.1 | 13.4 | 14.6 | – | – | – | – | – | – | – | Toxic | – | –
C[C@H](CC[C@@H](O)C(C)(C)O)[C@H]1CC[C@@]2(C)[C@@H]3CC=C4[C@@H](Cc5c([nH]c6ccc(Cl)cc56)C4(C)C)[C@]3(C)[C@H](O)C[C@]12C | > 30 | 23.1 | 18.5 | 19.1 | – | – | – | – | – | – | – | – | > 95 | –
Cc1ccc(/C=C2\C[C@@H]3C(=CC[C@@H]4[C@@]3(C)C(=O)C[C@]3(C)[C@@H]([C@H](C)CC[C@@H](O)C(C)(C)O)CC[C@@]43C)C(C)(C)C2=O)cc1 | 22.1 | 24.3 | 19.1 | > 30 | – | – | – | – | – | – | – | Toxic | – | –
C[C@H](CC[C@@H](O)C(C)(C)O)[C@H]1CC[C@@]2(C)[C@@H]3CC=C4[C@@H](Cc5cc6cc(Cl)ccc6nc5C4(C)C)[C@]3(C)[C@H](O)C[C@]12C | 8.22 | 19 | 16.4 | 13.2 | – | – | – | – | – | – | – | Toxic | – | –
C[C@H](CC[C@@H](O)C(C)(C)O)[C@H]1CC[C@@]2(C)[C@@H]3CC=C4[C@@H](Cc5c([nH]c6ccccc56)C4(C)C)[C@]3(C)C(=O)C[C@]12C | 27.9 | > 30 | > 30 | > 30 | 78.2 | – | – | – | – | – | – | – | – | –
Cc1ccc2[nH]c3c(c2c1)C[C@@H]1C(=CC[C@@H]2[C@@]1(C)[C@H](O)C[C@]1(C)[C@@H]([C@H](C)CC[C@@H](O)C(C)(C)O)CC[C@@]21C)C3(C)C | 22.6 | 31.5 | > 30 | > 30 | 45.1 | – | – | – | – | – | – | – | – | –
O=c1[nH]cc(F)c(=O)[nH]1 [FLUOROURACIL] | 1.65 | – | 1.98 | 3.53 | – | – | – | – | – | – | – | – | – | –
C[C@H](CC[C@@H](O)C(C)(C)O)[C@H]1CC[C@@]2(C)[C@@H]3CC=C4[C@@H](C/C(=C\c5ccc(Cl)cc5)C(=O)C4(C)C)[C@]3(C)[C@H](O)C[C@]12C | 8.26 | 9.94 | 13.6 | > 30 | – | – | – | – | – | – | – | Toxic | – | –
C=C1C(=O)O[C@@H]2C3O[C@]3(C)CC/C=C(\C)CC[C@@H]12 (stereo not given in full) | – | – | – | – | – | – | – | – | – | – | – | – | – | 91.9
C[C@H](CC[C@@H](O)C(C)(C)O)[C@H]1CC[C@@]2(C)[C@@H]3CC=C4[C@@H](Cc5cc6cc(F)ccc6nc5C4(C)C)[C@]3(C)[C@H](O)C[C@]12C | 7.55 | 16.3 | 14.7 | 11.7 | – | – | – | – | – | – | – | Toxic | – | –
C[C@H](CC[C@@H](O)C(C)(C)O)[C@H]1CC[C@@]2(C)[C@@H]3CC=C4[C@@H](Cc5cc6ccncc6nc5C4(C)C)[C@]3(C)[C@H](O)C[C@]12C | > 30 | 23.4 | > 30 | > 30 | – | – | – | – | – | – | – | Toxic | – | –
